From the kinase profiling compilation of Christmann-Franck et al. (2016)

Columns and labels:
Assay in all cases: radiometric filter-binding kinase assay, Kinase HotSpot
Details in all cases: compound 0.5 µM; ATP 10 µM
MAPK1 (human) = MAPK1 (human) (UniProt P28482)
DAPK1 (human) = DAPK1 (human) (UniProt P53355)
TLK2 (human) = TLK2 (human) (UniProt Q86UE8)
CAMK2A (human) = CAMK2A (human) (UniProt Q9UQM7)
CDK7 CCNH MNAT1 (human) = CDK7 CCNH MNAT1 (human) (UniProt P50613+P51948+P51946)
MET (human) = MET (human) (UniProt P08581)
TAOK2 (human) = TAOK2 (human) (UniProt Q9UL54)
PRKCB1 (human) = PRKCB1 (human) (UniProt P05771)
Sequence of PRKCB1 (human) (P05771 whole entry, looked up): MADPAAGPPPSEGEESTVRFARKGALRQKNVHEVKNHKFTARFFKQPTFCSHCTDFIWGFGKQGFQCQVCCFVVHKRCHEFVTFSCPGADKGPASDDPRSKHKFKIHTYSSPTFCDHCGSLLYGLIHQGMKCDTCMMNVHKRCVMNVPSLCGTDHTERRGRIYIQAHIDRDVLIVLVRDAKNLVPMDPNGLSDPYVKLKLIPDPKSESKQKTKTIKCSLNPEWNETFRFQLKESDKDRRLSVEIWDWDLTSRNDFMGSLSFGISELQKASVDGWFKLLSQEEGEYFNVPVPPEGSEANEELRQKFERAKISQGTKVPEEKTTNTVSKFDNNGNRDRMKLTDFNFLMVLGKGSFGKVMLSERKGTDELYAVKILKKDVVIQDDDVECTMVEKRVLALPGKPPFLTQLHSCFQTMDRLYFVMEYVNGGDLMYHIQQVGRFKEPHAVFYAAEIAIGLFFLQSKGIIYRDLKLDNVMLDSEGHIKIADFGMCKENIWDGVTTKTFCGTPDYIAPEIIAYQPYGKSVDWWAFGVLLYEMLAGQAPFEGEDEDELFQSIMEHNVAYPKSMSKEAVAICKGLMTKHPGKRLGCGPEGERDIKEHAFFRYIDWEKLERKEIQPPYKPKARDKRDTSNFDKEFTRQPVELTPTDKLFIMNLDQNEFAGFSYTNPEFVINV

CDK4 CCND1 (human) = CDK4 CCND1 (human) (UniProt P24385+P11802)
MINK1 (human) = MINK1 (human) (UniProt Q8N4C8)
RIPK2 (human) = RIPK2 (human) (UniProt O43353)
ROCK1 (human) = ROCK1 (human) (UniProt Q13464)
ROS1 (human) = ROS1 (human) (UniProt P08922)
MAP3K7 TAB1 (human) = MAP3K7 TAB1 (human) (UniProt O43318+Q15750)
RPS6KA4 KD2 (human) = RPS6KA4 KD2 (human) (UniProt O75676)
AKT3 (human) = AKT3 (human) (UniProt Q9Y243)
EPHB2 (human) = EPHB2 (human) (UniProt P29323)
Sequence of EPHB2 (human) (P29323 whole entry, looked up): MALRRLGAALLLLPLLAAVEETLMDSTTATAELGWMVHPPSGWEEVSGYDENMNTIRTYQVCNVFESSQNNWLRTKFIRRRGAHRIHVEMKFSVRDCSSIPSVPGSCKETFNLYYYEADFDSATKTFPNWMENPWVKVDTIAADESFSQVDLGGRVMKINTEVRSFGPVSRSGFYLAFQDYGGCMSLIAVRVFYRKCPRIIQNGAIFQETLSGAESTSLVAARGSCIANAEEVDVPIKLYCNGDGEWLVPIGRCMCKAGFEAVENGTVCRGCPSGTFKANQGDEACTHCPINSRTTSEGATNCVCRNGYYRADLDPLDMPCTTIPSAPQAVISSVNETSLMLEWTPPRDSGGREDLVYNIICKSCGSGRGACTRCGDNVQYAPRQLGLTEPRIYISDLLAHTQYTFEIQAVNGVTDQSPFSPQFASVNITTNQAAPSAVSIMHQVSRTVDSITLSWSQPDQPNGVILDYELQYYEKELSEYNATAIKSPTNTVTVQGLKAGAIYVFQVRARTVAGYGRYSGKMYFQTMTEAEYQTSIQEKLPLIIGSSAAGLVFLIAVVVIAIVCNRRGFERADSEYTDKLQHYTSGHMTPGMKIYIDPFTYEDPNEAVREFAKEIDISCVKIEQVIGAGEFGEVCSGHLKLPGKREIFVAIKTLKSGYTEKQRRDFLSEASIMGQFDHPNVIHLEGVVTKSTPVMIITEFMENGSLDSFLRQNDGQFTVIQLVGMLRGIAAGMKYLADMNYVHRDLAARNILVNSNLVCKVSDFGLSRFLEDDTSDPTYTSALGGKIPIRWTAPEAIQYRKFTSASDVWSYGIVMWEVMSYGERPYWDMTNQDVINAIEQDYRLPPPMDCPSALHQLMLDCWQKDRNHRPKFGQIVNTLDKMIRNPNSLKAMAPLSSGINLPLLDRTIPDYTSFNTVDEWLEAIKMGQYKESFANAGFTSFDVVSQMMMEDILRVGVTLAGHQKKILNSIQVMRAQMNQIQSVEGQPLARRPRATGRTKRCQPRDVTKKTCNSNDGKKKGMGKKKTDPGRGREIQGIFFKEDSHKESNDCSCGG

CSF1R (human) = CSF1R (human) (UniProt P07333)
NTRK3 (human) = NTRK3 (human) (UniProt Q16288)
HIPK3 (human) = HIPK3 (human) (UniProt Q9H422)
MAP3K14 (human) = MAP3K14 (human) (UniProt Q99558)
ABL2 (human) = ABL2 (human) (UniProt P42684)
SRC (human) = SRC (human) (UniProt P12931)
GSK3B (human) = GSK3B (human) (UniProt P49841)
MARK2 (human) = MARK2 (human) (UniProt Q7KZI7)
GSG2 (human) = GSG2 (human) (UniProt Q8TF76)
Sequence of GSG2 (human) (Q8TF76 whole entry, looked up): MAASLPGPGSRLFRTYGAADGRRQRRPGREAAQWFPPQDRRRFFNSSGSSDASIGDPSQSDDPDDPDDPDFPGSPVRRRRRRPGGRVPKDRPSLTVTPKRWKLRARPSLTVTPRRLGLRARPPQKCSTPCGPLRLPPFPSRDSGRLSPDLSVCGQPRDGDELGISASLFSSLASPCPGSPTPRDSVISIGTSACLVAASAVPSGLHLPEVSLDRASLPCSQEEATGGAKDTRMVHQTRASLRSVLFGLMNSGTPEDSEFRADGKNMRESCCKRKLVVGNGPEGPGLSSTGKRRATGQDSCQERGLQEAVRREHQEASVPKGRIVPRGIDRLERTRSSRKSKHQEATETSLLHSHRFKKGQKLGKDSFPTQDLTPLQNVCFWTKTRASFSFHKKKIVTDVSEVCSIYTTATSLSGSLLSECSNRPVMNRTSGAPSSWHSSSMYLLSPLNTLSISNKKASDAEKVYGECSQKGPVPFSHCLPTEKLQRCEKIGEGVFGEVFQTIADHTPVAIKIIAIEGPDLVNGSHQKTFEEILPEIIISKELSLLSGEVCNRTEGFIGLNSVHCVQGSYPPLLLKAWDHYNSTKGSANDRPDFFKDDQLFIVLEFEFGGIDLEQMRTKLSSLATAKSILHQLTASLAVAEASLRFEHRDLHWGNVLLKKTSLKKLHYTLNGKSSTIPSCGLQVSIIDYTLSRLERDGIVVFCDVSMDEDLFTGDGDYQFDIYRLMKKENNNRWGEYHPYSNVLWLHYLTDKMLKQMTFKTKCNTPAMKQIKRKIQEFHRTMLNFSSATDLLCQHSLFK

NEK9 (human) = NEK9 (human) (UniProt Q8TD19)
CDK5 CDK5R1 p35 (human) = CDK5 CDK5R1 p35 (human) (UniProt Q00535+Q15078)
NEK4 (human) = NEK4 (human) (UniProt P51957)
MAP3K11 (human) = MAP3K11 (human) (UniProt Q16584)
Sequence of MAP3K11 (human) (Q16584 whole entry, looked up): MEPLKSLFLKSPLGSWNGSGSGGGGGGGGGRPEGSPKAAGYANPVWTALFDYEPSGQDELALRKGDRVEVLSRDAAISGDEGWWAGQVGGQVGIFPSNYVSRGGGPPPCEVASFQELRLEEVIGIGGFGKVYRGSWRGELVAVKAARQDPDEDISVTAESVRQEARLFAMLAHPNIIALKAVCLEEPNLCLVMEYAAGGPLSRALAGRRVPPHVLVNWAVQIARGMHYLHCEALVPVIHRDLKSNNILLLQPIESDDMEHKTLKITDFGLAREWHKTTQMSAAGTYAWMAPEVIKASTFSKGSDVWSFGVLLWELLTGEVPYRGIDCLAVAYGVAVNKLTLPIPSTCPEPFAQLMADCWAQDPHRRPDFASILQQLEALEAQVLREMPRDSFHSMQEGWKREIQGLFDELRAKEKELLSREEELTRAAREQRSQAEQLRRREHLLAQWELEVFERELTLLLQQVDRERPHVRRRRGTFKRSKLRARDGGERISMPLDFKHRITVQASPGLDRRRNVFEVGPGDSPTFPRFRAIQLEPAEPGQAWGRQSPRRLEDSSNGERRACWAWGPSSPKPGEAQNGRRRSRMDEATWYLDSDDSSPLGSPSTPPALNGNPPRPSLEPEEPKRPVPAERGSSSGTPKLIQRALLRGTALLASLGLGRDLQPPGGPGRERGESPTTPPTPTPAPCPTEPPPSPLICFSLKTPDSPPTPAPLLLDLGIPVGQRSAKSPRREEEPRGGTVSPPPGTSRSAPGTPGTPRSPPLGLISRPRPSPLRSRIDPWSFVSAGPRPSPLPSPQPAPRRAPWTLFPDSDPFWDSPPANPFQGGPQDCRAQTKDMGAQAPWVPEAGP

VRK1 (human) = VRK1 (human) (UniProt Q99986)
EPHB4 (human) = EPHB4 (human) (UniProt P54760)
CLK3 (human) = CLK3 (human) (UniProt P49761)
RPS6KA5 KD2 (human) = RPS6KA5 KD2 (human) (UniProt O75582)
MUSK (human) = MUSK (human) (UniProt O15146)
CDK9 CCNT1 (human) = CDK9 CCNT1 (human) (UniProt P50750+O60563)
ALK (human) = ALK (human) (UniProt Q9UM73)
Sequence of ALK (human) (Q9UM73 whole entry, looked up): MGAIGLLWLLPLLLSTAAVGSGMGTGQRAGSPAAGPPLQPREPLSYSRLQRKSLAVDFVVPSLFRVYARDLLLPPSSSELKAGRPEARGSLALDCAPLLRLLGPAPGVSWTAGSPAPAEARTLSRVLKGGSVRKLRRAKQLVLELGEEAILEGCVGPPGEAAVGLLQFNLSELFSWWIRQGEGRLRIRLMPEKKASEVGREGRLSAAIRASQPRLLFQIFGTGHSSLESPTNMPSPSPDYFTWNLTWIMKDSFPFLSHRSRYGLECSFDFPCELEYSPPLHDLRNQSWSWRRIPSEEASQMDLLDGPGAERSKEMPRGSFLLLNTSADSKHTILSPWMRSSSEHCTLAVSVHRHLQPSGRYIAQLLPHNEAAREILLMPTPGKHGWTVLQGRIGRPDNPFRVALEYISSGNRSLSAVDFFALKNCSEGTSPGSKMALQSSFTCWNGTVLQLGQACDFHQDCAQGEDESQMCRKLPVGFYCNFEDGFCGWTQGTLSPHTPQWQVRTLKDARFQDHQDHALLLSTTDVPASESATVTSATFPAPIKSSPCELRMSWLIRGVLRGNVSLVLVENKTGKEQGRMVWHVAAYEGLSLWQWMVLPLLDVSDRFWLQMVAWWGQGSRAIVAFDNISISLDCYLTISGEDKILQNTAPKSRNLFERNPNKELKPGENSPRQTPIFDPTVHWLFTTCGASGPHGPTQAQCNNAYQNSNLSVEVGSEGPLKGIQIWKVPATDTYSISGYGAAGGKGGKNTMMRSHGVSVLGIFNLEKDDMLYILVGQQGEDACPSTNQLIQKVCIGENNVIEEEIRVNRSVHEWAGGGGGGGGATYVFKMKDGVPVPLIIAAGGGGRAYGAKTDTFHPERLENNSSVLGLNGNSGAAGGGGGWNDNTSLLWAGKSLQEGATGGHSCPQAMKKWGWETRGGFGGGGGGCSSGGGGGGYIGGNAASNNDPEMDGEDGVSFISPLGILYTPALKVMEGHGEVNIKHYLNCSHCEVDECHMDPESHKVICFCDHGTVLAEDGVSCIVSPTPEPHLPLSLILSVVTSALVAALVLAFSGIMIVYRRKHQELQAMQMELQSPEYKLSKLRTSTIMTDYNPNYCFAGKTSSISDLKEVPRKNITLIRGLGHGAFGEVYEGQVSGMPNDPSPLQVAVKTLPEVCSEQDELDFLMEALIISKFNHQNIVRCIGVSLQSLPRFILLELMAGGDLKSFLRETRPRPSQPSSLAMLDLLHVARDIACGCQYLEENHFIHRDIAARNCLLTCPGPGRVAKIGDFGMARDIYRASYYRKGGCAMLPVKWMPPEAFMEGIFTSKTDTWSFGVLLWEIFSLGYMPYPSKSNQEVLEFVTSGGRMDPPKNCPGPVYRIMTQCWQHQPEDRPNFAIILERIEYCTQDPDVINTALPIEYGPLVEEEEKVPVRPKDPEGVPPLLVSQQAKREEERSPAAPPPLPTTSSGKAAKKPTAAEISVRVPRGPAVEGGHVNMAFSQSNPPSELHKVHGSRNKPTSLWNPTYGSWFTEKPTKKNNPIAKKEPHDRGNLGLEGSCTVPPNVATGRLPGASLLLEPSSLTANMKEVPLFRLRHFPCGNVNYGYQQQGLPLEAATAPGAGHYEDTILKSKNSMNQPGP

PRKD3 (human) = PRKD3 (human) (UniProt O94806)
MAPK8 (human) = MAPK8 (human) (UniProt P45983)
MLTK (human) = MLTK (human) (UniProt Q9NYL2)
EPHA7 (human) = EPHA7 (human) (UniProt Q15375)

CCN(CC)CCNC(=O)c1c(C)[nH]c(/C=C2\C(=O)Nc3ccc(Cl)cc32)c1C
residual activity (MAPK1 (human)): 97.1%
residual activity (DAPK1 (human)): 47.7%
residual activity (TLK2 (human)): 79.6%
residual activity (CAMK2A (human)): 3.6%
residual activity (CDK7 CCNH MNAT1 (human)): 72.8%
residual activity (MET (human)): 77%
residual activity (TAOK2 (human)): 72.6%
residual activity (PRKCB1 (human)): 98.1%
residual activity (CDK4 CCND1 (human)): 74.1%
residual activity (MINK1 (human)): 4.4%
residual activity (RIPK2 (human)): 84.1%
residual activity (ROCK1 (human)): 89.7%
residual activity (ROS1 (human)): 43.9%
residual activity (MAP3K7 TAB1 (human)): 3.51%
residual activity (RPS6KA4 KD2 (human)): 59%
residual activity (AKT3 (human)): 84.2%
residual activity (EPHB2 (human)): 87.5%
residual activity (CSF1R (human)): 7.41%
residual activity (NTRK3 (human)): 1.87%
residual activity (HIPK3 (human)): 50.8%
residual activity (MAP3K14 (human)): 118%
residual activity (ABL2 (human)): 46.8%
residual activity (SRC (human)): 26%
residual activity (GSK3B (human)): 93.1%
residual activity (MARK2 (human)): 9.74%
residual activity (GSG2 (human)): 82.9%
residual activity (NEK9 (human)): 95.9%
residual activity (CDK5 CDK5R1 p35 (human)): 86.2%
residual activity (NEK4 (human)): 97%
residual activity (MAP3K11 (human)): 21%
residual activity (VRK1 (human)): 90.7%
residual activity (EPHB4 (human)): 76.9%
residual activity (CLK3 (human)): 101%
residual activity (RPS6KA5 KD2 (human)): 59%
residual activity (MUSK (human)): 63.5%
residual activity (CDK9 CCNT1 (human)): 58.8%
residual activity (ALK (human)): 3.45%
residual activity (PRKD3 (human)): 8.04%
residual activity (MAPK8 (human)): 97.2%
residual activity (MLTK (human)): 95.8%
residual activity (EPHA7 (human)): 67.1%

O=C1NC(=O)C(c2cn(CCCn3ccnc3)c3ccccc23)=C1Nc1ccccc1
residual activity (MAPK1 (human)): 94.8%
residual activity (DAPK1 (human)): 99.2%
residual activity (TLK2 (human)): 74.1%
residual activity (CAMK2A (human)): 95.5%
residual activity (CDK7 CCNH MNAT1 (human)): 96.3%
residual activity (MET (human)): 100%
residual activity (TAOK2 (human)): 92.3%
residual activity (PRKCB1 (human)): 9.78%
residual activity (CDK4 CCND1 (human)): 99.1%
residual activity (MINK1 (human)): 90.1%
residual activity (RIPK2 (human)): 84.3%
residual activity (ROCK1 (human)): 99.2%
residual activity (ROS1 (human)): 78.7%
residual activity (MAP3K7 TAB1 (human)): 93.8%
residual activity (RPS6KA4 KD2 (human)): 44.4%
residual activity (AKT3 (human)): 71%
residual activity (EPHB2 (human)): 98.4%
residual activity (CSF1R (human)): 97.5%
residual activity (NTRK3 (human)): 40%
residual activity (HIPK3 (human)): 102%
residual activity (MAP3K14 (human)): 96.1%
residual activity (ABL2 (human)): 91.8%
residual activity (SRC (human)): 100%
residual activity (GSK3B (human)): 14.2%
residual activity (MARK2 (human)): 97.1%
residual activity (GSG2 (human)): 95.8%
residual activity (NEK9 (human)): 89.1%
residual activity (CDK5 CDK5R1 p35 (human)): 91.4%
residual activity (NEK4 (human)): 94.9%
residual activity (MAP3K11 (human)): 13.3%
residual activity (VRK1 (human)): 98.7%
residual activity (EPHB4 (human)): 87.9%
residual activity (CLK3 (human)): 93.9%
residual activity (RPS6KA5 KD2 (human)): 36.9%
residual activity (MUSK (human)): 51.6%
residual activity (CDK9 CCNT1 (human)): 51.3%
residual activity (ALK (human)): 97.7%
residual activity (PRKD3 (human)): 80%
residual activity (MAPK8 (human)): 99.6%
residual activity (MLTK (human)): 104%
residual activity (EPHA7 (human)): 89.5%
